Test results as given in patent publication US20250263459A1, “STABILIZED PACAP PEPTIDE” (SENJU PHARMACEUTICAL CO., LTD., priority 2019, published 2025).
Starred links: 1 amine or outer side, 2 acyl side, 3 side chain; linkers in the order of their positions; H or OH if unused. Non-standard residues stand in square brackets, D forms with d. Residues, ends and D or L forms follow the SMILES beside them. *: point of attachment. Ala(1H-tetrazol-5-yl) = N[C@@H](Cc1nnn[nH]1)C(=O)O; X2 = O=C([C@H](Cc1noc(=O)[nH]1)N[*:1])[*:2]; X1 = O=C([C@@H](Cc1nnn[nH]1)N[*:1])[*:2]; X3 = O=C([C@H](CCc1nnn[nH]1)N[*:1])[*:2]; Isovaleryl = CC(C)CC(=O)*; Nle = CCCC[C@H](N)C(=O)O; Propionyl = CCC(=O)*

What was measured:
[1] = Stability test 1: survival rate of peptide in phosphate buffer (pH 7.0) after storage, HPLC; assay type: physicochemical; details: 100 μM peptide, phosphate buffer pH 7.0, 40° C.; for survival rate after correction for water, 40° C. 2 week: 2 weeks (Table 6); for survival rate after correction for water, 40° C. 8 week: 8 weeks (Table 6)
Experimental: The 1.0 mM peptide solutions were then diluted with phosphate buffer to 100 μM. […] The prepared peptide solutions were incubated for one month or 2 months in a 40° C. thermostatic bath to obtain stored samples.
Using the total weight of the aqueous peptide solution and storage vessel as the specimen weight, measurements were recorded as the specimen weights before storage and the specimen weights after storage under different storage conditions. The empty weight of the storage vessel was also measured, and the moisture permeability was determined by the following formula.
After stirring the standard sample and the stored samples with a vortex mixer, each peptide solution was transferred to an HPLC vial (Deactivated Qsert vial by Waters Co.). Reverse-phase HPLC (HPLC system: Prominence by Shimadzu Corp.) was conducted under the conditions shown in Table 3 below for analysis of the peptide solutions, and chromatograms were obtained.
The peak area value for the peptide in the chromatogram was calculated, and the survival rate (survival rate before correction for water) was calculated using formula (2). The survival rate after correction for water was also calculated from the survival rate before correction for water using formula (3) to take into account the permeability of the container.
Peptide solutions prepared by the same method as [Measuring sample preparation 1] for the peptides synthesized in Example 2 (peptides 13 to 16) were incubated for 2 weeks and 8 weeks in a thermostatic bath at 40° C. to obtain stored samples.
Peptide solutions prepared by the same method as [Measuring sample preparation 1] for the peptides synthesized in Example 2 (peptides 17 to 21) were incubated for 4 weeks in a thermostatic bath at 40° C. to obtain stored samples.
A peptide solution prepared by the same method as [Measuring sample preparation 1] for peptide 22 synthesized in Example 2 was incubated for 1 week and 4 weeks in a thermostatic bath at 40° C. to obtain stored samples.

[2] = 100 μM peptide, Tris buffer pH 7.0, 60° C.
Experimental: The solution was filtered with a Chromatdisk (product of Merck Millipore, Millex-GV, 0.22 μm). The filtrate was diluted to 100 μM with Tris buffer (pH 7.0) and dispensed into a tube (Protein LoBind Tube by Eppendorf Co.). The prepared peptide solutions were incubated for 1 week or 2 weeks in a 60° C. thermostatic bath to obtain stored samples. A simultaneously prepared sample among the peptide solutions that was not stored was used as a standard sample (initial sample). The standard sample and the stored samples were stored at −30° C. until sample analysis.
• Column: XSelect CSH C18 by Waters Co., 5 μm, 4.6×250 mm • Guard column: XSelect CSH C18 by Waters Co., 5 μm, 4.6×20 mm Guard Cartridge • Detection wavelength: 220 nm • Mobile phase A: 0.1% formic acid aqueous solution • Mobile phase B: 0.1% acetonitrile formate solution • Measuring time: 20 minutes • Measuring sample injection rate: 50 μL • Flow rate: 1.0 mL/min • Column temperature: 40° C. • Sample cooler: 25° C. • Mobile phase delivery: The mixing ratio of mobile phase A and mobile phase B was varied as shown in Table 14 for linear concentration gradient control.

Compound	survival rate after correction for water, 40° C. 2 week [1]	survival rate after correction for water, 40° C. 8 week [1]	survival rate after correction for water, 60° C. 1 week preservation [2]	survival rate after correction for water, 60° C. 2 weeks preservation [2]	other results
CCCC[C@H](NC(=O)[C@H](CCC(N)=O)NC(=O)[C@H](CCCCN)NC(=O)[C@H](CCCNC(=N)N)NC(=O)[C@H](Cc1ccc(O)cc1)NC(=O)[C@H](CCCNC(=N)N)NC(=O)[C@H](CO)NC(=O)[C@H](Cc1ccc(O)cc1)NC(=O)[C@H](CO)NC(=O)[C@@H](Cc1nnn[nH]1)NC(=O)[C@@H](NC(=O)[C@H](Cc1ccccc1)NC(=O)[C@@H](NC(=O)CNC(=O)[C@@H](Cc1nnn[nH]1)NC(=O)[C@H](CO)NC(=O)[C@@H](N)Cc1c[nH]cn1)[C@@H](C)CC)[C@@H](C)O)C(=O)N[C@@H](C)C(=O)N[C@H](C(=O)N[C@@H](CCCCN)C(=O)N[C@@H](CCCCN)C(=O)N[C@@H](Cc1ccc(O)cc1)C(=O)N[C@@H](CC(C)C)C(=O)N[C@@H](C)C(=O)N[C@@H](C)C(=O)N[C@H](C(=O)N[C@@H](CC(C)C)C(N)=O)C(C)C)C(C)C [Peptide 13, HSTz(D)GI FTTz(D)SY SRYRK QNIAVK KYLAA VL] (H-HS[X1]GIFT[X1]SYSRYRKQ[Nle]AVKKYLAAVL-NH2)	96.2%	84.6%	–	–	–
CCCC[C@H](NC(=O)[C@H](CCC(N)=O)NC(=O)[C@H](CCCCN)NC(=O)[C@H](CCCNC(=N)N)NC(=O)[C@H](Cc1ccc(O)cc1)NC(=O)[C@H](CCCNC(=N)N)NC(=O)[C@H](CO)NC(=O)[C@H](Cc1ccc(O)cc1)NC(=O)[C@H](CO)NC(=O)[C@@H](Cc1nnn[nH]1)NC(=O)[C@@H](NC(=O)[C@H](Cc1ccccc1)NC(=O)[C@@H](NC(=O)CNC(=O)[C@H](Cc1nnn[nH]1)NC(=O)[C@H](CO)NC(=O)[C@@H](N)Cc1c[nH]cn1)[C@@H](C)CC)[C@@H](C)O)C(=O)N[C@@H](C)C(=O)N[C@H](C(=O)N[C@@H](CCCCN)C(=O)N[C@@H](CCCCN)C(=O)N[C@@H](Cc1ccc(O)cc1)C(=O)N[C@@H](CC(C)C)C(=O)N[C@@H](C)C(=O)N[C@@H](C)C(=O)N[C@H](C(=O)N[C@@H](CC(C)C)C(N)=O)C(C)C)C(C)C [Peptide 14, HSTzGI FTTz(D)SY SRYRK QNIAVK KYLAA VL] (H-HS[Ala(1H-tetrazol-5-yl)]GIFT[X1]SYSRYRKQ[Nle]AVKKYLAAVL-NH2)	96.3%	84.5%	–	–	–
CCCC[C@H](NC(=O)[C@H](CCC(N)=O)NC(=O)[C@H](CCCCN)NC(=O)[C@H](CCCNC(=N)N)NC(=O)[C@H](Cc1ccc(O)cc1)NC(=O)[C@H](CCCNC(=N)N)NC(=O)[C@H](CO)NC(=O)[C@H](Cc1ccc(O)cc1)NC(=O)[C@H](CO)NC(=O)[C@H](Cc1nnn[nH]1)NC(=O)[C@@H](NC(=O)[C@H](Cc1ccccc1)NC(=O)[C@@H](NC(=O)CNC(=O)[C@@H](Cc1nnn[nH]1)NC(=O)[C@H](CO)NC(=O)[C@@H](N)Cc1c[nH]cn1)[C@@H](C)CC)[C@@H](C)O)C(=O)N[C@@H](C)C(=O)N[C@H](C(=O)N[C@@H](CCCCN)C(=O)N[C@@H](CCCCN)C(=O)N[C@@H](Cc1ccc(O)cc1)C(=O)N[C@@H](CC(C)C)C(=O)N[C@@H](C)C(=O)N[C@@H](C)C(=O)N[C@H](C(=O)N[C@@H](CC(C)C)C(N)=O)C(C)C)C(C)C [Peptide 15, HSTz(D)GI FTTzSY SRYRK QNIAVK KYLAA VL] (H-HS[X1]GIFT[Ala(1H-tetrazol-5-yl)]SYSRYRKQ[Nle]AVKKYLAAVL-NH2)	95.6%	81.3%	–	–	–
CCCC[C@H](NC(=O)[C@H](CCC(N)=O)NC(=O)[C@H](CCCCN)NC(=O)[C@H](CCCNC(=N)N)NC(=O)[C@H](Cc1ccc(O)cc1)NC(=O)[C@H](CCCNC(=N)N)NC(=O)[C@H](CO)NC(=O)[C@H](Cc1ccc(O)cc1)NC(=O)[C@H](CO)NC(=O)[C@H](CCc1nnn[nH]1)NC(=O)[C@@H](NC(=O)[C@H](Cc1ccccc1)NC(=O)[C@@H](NC(=O)CNC(=O)[C@H](Cc1nnn[nH]1)NC(=O)[C@H](CO)NC(=O)[C@@H](N)Cc1c[nH]cn1)[C@@H](C)CC)[C@@H](C)O)C(=O)N[C@@H](C)C(=O)N[C@H](C(=O)N[C@@H](CCCCN)C(=O)N[C@@H](CCCCN)C(=O)N[C@@H](Cc1ccc(O)cc1)C(=O)N[C@@H](CC(C)C)C(=O)N[C@@H](C)C(=O)N[C@@H](C)C(=O)N[C@H](C(=O)N[C@@H](CC(C)C)C(N)=O)C(C)C)C(C)C [Peptide 16, HSTzGI FTegTzSY SRYRK QNIAVK KYLAA VL] (H-HS[Ala(1H-tetrazol-5-yl)]GIFT[X3]SYSRYRKQ[Nle]AVKKYLAAVL-NH2)	94.4%	80.3%	–	–	–
CCCC[C@H](NC(=O)[C@H](CCC(N)=O)NC(=O)[C@H](CCCCN)NC(=O)[C@H](CCCNC(=N)N)NC(=O)[C@H](Cc1ccc(O)cc1)NC(=O)[C@H](CCCNC(=N)N)NC(=O)[C@H](CO)NC(=O)[C@H](Cc1ccc(O)cc1)NC(=O)[C@H](CO)NC(=O)[C@H](Cc1nnn[nH]1)NC(=O)[C@@H](NC(=O)[C@H](Cc1ccccc1)NC(=O)[C@@H](NC(=O)CNC(=O)[C@H](Cc1nnn[nH]1)NC(=O)[C@H](CO)NC(=O)[C@H](Cc1c[nH]cn1)NC(=O)CC)[C@@H](C)CC)[C@@H](C)O)C(=O)N[C@@H](C)C(=O)N[C@H](C(=O)N[C@@H](CCCCN)C(=O)N[C@@H](CCCCN)C(=O)N[C@@H](Cc1ccc(O)cc1)C(=O)N[C@@H](CC(C)C)C(=O)N[C@@H](C)C(=O)N[C@@H](C)C(=O)N[C@H](C(=O)N[C@@H](CC(C)C)C(N)=O)C(C)C)C(C)C [Peptide 17, HSTzGI FTTzSY SRYRK QNIAVK KYLAA VL] (Propionyl-HS[Ala(1H-tetrazol-5-yl)]GIFT[Ala(1H-tetrazol-5-yl)]SYSRYRKQ[Nle]AVKKYLAAVL-NH2)	–	–	–	–	survival rate after correction for water, 40° C. 4 week ([1]; 4 weeks (Table 8)): 59.2%
CCCC[C@H](NC(=O)[C@H](CCC(N)=O)NC(=O)[C@H](CCCCN)NC(=O)[C@H](CCCNC(=N)N)NC(=O)[C@H](Cc1ccc(O)cc1)NC(=O)[C@H](CCCNC(=N)N)NC(=O)[C@H](CO)NC(=O)[C@H](Cc1ccc(O)cc1)NC(=O)[C@H](CO)NC(=O)[C@H](Cc1nnn[nH]1)NC(=O)[C@@H](NC(=O)[C@H](Cc1ccccc1)NC(=O)[C@@H](NC(=O)CNC(=O)[C@H](Cc1nnn[nH]1)NC(=O)[C@H](CO)NC(=O)[C@H](Cc1c[nH]cn1)NC(=O)CC(C)C)[C@@H](C)CC)[C@@H](C)O)C(=O)N[C@@H](C)C(=O)N[C@H](C(=O)N[C@@H](CCCCN)C(=O)N[C@@H](CCCCN)C(=O)N[C@@H](Cc1ccc(O)cc1)C(=O)N[C@@H](CC(C)C)C(=O)N[C@@H](C)C(=O)N[C@@H](C)C(=O)N[C@H](C(=O)N[C@@H](CC(C)C)C(N)=O)C(C)C)C(C)C [Peptide 21] (Isovaleryl-HS[Ala(1H-tetrazol-5-yl)]GIFT[Ala(1H-tetrazol-5-yl)]SYSRYRKQ[Nle]AVKKYLAAVL-NH2)	–	–	–	–	survival rate after correction for water, 40° C. 4 week ([1]; 4 weeks (Table 8)): 69.0%
CCCC[C@H](NC(=O)[C@H](CCC(N)=O)NC(=O)[C@H](CCCCN)NC(=O)[C@H](CCCNC(=N)N)NC(=O)[C@H](Cc1ccc(O)cc1)NC(=O)[C@H](CCCNC(=N)N)NC(=O)[C@H](CO)NC(=O)[C@H](Cc1ccc(O)cc1)NC(=O)[C@H](CO)NC(=O)[C@H](Cc1noc(=O)[nH]1)NC(=O)[C@@H](NC(=O)[C@H](Cc1ccccc1)NC(=O)[C@@H](NC(=O)CNC(=O)[C@H](Cc1noc(=O)[nH]1)NC(=O)[C@H](CO)NC(=O)[C@H](Cc1c[nH]cn1)NC(C)=O)[C@@H](C)CC)[C@@H](C)O)C(=O)N[C@@H](C)C(=O)N[C@H](C(=O)N[C@@H](CCCCN)C(=O)N[C@@H](CCCCN)C(=O)N[C@@H](Cc1ccc(O)cc1)C(=O)N[C@@H](CC(C)C)C(=O)N[C@@H](C)C(=O)N[C@@H](C)C(=O)N[C@H](C(=O)N[C@@H](CC(C)C)C(N)=O)C(C)C)C(C)C [Peptide 22, HS(50xa)GI FT(50xa)SY SRYRK QNIAVK KYLAA VL] (Ac-HS[X2]GIFT[X2]SYSRYRKQ[Nle]AVKKYLAAVL-NH2)	–	–	–	–	survival rate after correction for water, 40° C. 1 week ([1]; 1 week (Table 10)): 89.7%; survival rate after correction for water, 40° C. 4 week ([1]; 4 weeks (Table 10)): 79.7%
HSTzGIFTTzSYSRYRKQLAVKKYLAAVL [Reference Example 4]	–	–	91.7%	84.8%	–
HSTzGIFTTzSYSRYRKQLAVKKYLAAVL [Reference Example 6] (HSXGIFTXSYSRYRKQLAVKKYLAAVL; N-acetyl; C-terminal amide; Tz residues; modified PACAP peptide; MOD_RES (1)..(1) …ON; MUTAGEN (3)..(3) Xaa is amino acid wherein carboxy group of asparatic acid is substituted with tetrazole; MUTAGEN (8)..(8) Xaa is amino acid wherein carboxy group of asparatic acid is substituted with tetrazole)	–	–	98.4%	92.8%	–
HSTzGIFTTzSYSRYRKQNIAVKKYLAAVL [Reference Example 3]	–	–	91.3%	82.4%	–
